Test results taken from PubChem BioAssay AID330 (DTP/NCI, 2004).
Where “and” joins values, the source holds several entries; their conditions need not be identical. Identical values can stand only once. Toxic doses and inconclusive results are not listed.

Tested on: P388 leukemia ip, CD2F1 mice, survival T/C
Assay: NCI In Vivo Anticancer Drug Screen. Data for tumor model P388 Leukemia (intraperitoneal) in CD2F1 (CDF1) mice
Settings: endpoint: median survival time, higher = longer survival
Outline: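 Mice carrying the transplanted tumor received test compound or vehicle. Survival was recorded in each group, and the value is the treated-group measurement divided by that of the vehicle-treated control group.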

[1] = dose: 50.0 mg/kg/injection, schedule: Q01DX009 (ip), vehicle: Klucel (hydroxypropylcellulose) (HPC)
[2] = dose: 200.0 mg/kg/injection, schedule: Q01DX009 (ip), vehicle: Klucel (hydroxypropylcellulose) (HPC)
[3] = dose: 50.0 mg/kg/injection, schedule: Q01DX009 (ip), vehicle: saline
[4] = dose: 100.0 mg/kg/injection, schedule: Q01DX009 (ip), vehicle: saline
[5] = dose: 200.0 mg/kg/injection, schedule: Q01DX009 (ip), vehicle: saline
[6] = dose: 60.0 mg/kg/injection, schedule: Q01DX005 (ip), vehicle: Klucel (hydroxypropylcellulose) (HPC)
[7] = dose: 120.0 mg/kg/injection, schedule: Q01DX005 (ip), vehicle: Klucel (hydroxypropylcellulose) (HPC)
[8] = dose: 100.0 mg/kg/injection, schedule: Q01DX009 (ip), vehicle: Klucel (hydroxypropylcellulose) (HPC)
[9] = dose: 100.0 mg/kg/injection, schedule: Q04DX003 (ip), vehicle: saline with Tween-80
[10] = dose: 200.0 mg/kg/injection, schedule: Q04DX003 (ip), vehicle: saline with Tween-80
[11] = dose: 400.0 mg/kg/injection, schedule: Q04DX003 (ip), vehicle: saline with Tween-80
[12] = dose: 50.0 mg/kg/injection, schedule: Q01DX005 (ip), vehicle: Klucel (hydroxypropylcellulose) (HPC)
[13] = dose: 100.0 mg/kg/injection, schedule: Q01DX005 (ip), vehicle: Klucel (hydroxypropylcellulose) (HPC)
[14] = dose: 200.0 mg/kg/injection, schedule: Q01DX005 (ip), vehicle: Klucel (hydroxypropylcellulose) (HPC)
[15] = dose: 50.0 mg/kg/injection, schedule: Q01DX005 (ip), vehicle: saline with Tween-80
[16] = dose: 200.0 mg/kg/injection, schedule: Q01DX005 (ip), vehicle: saline with Tween-80
[17] = dose: 50.0 mg/kg/injection, schedule: Q01DX009 (ip), vehicle: saline with Tween-80
[18] = dose: 100.0 mg/kg/injection, schedule: Q01DX009 (ip), vehicle: saline with Tween-80
[19] = dose: 200.0 mg/kg/injection, schedule: Q01DX009 (ip), vehicle: saline with Tween-80
[20] = dose: 60.0 mg/kg/injection, schedule: Q01DX005 (ip), vehicle: saline with Tween-80
[21] = dose: 120.0 mg/kg/injection, schedule: Q01DX005 (ip), vehicle: saline with Tween-80
[22] = dose: 240.0 mg/kg/injection, schedule: Q01DX005 (ip), vehicle: saline with Tween-80

SMILES: CCOC(=O)N/N=C/c1ccc(N(C)CCC#N)cc1
- T/C (dose: 6.25 mg/kg/injection, schedule: Q01DX009 (ip), vehicle: Klucel (hydroxypropylcellulose) (HPC)): 90 % of control
- T/C (dose: 12.5 mg/kg/injection, schedule: Q01DX009 (ip), vehicle: Klucel (hydroxypropylcellulose) (HPC)): 100 % of control
- T/C (dose: 25.0 mg/kg/injection, schedule: Q01DX009 (ip), vehicle: Klucel (hydroxypropylcellulose) (HPC)): 97 % of control
- T/C [1]: 88 % of control and 89 % of control
- T/C [2]: 90 % of control

SMILES: COc1ccc2c(c1)s/c(=N/N)n2CCCS(=O)(=O)O
- T/C [3]: 109 % of control
- T/C [4]: 103 % of control
- T/C [5]: 110 % of control

SMILES: COC(=O)c1nc(N)nc(C(=O)OC)c1C(=O)c1ccc(Cl)cc1
- T/C [6]: 103 % of control
- T/C [7]: 101 % of control

SMILES: CCCS(=O)(=O)N/N=C(\C)c1cccs1
- T/C [1]: 95 % of control
- T/C [8]: 87 % of control

SMILES: O=C(Nc1cccc2c1C(=O)c1ccc(Nc3cc(NC(=O)c4ccccc4)c4c(c3)C(=O)c3ccccc3C4=O)cc1C2=O)c1ccccc1
- T/C [9]: 100 % of control
- T/C [10]: 100 % of control
- T/C [11]: 109 % of control

SMILES: O=C1CCCc2cc3c(nc21)C(=O)CCC3
- T/C [12]: 100 % of control
- T/C [13]: 100 % of control
- T/C [14]: 109 % of control

SMILES: Nc1ccccc1CN1C(=O)CCC1=O
- T/C [3]: 105 % of control
- T/C [4]: 101 % of control
- T/C [5]: 99 % of control

SMILES: CC1(Oc2ccccc2)OC(=O)c2ccccc2O1 (centres undefined)
- T/C [15]: 96 % of control
- T/C (dose: 100.0 mg/kg/injection, schedule: Q01DX005 (ip), vehicle: saline with Tween-80): 104 % of control
- T/C [16]: 95 % of control

SMILES: COC1(OC)C2C=CC1C1CC/C=C\CCC12 (centres undefined)
- T/C [17]: 106 % of control
- T/C [18]: 100 % of control
- T/C [19]: 103 % of control

SMILES: N#CC(C#N)=C1c2ccccc2C(=O)c2ccccc21
- T/C [12]: 88 % of control
- T/C [13]: 88 % of control
- T/C [14]: 92 % of control

SMILES: O=C(O)c1c[nH]c2cc(OCc3ccc(Br)cc3)ccc2c1=O
- T/C [3]: 96 % of control
- T/C [4]: 89 % of control
- T/C [5]: 86 % of control

SMILES: CCc1cccc(CC)c1NC(=O)OCCN(CC)CC
- T/C [20]: 100 % of control
- T/C [21]: 94 % of control

SMILES: CCOC(=O)c1cnc2cc(C(F)(F)F)ccc2c1N=[N+]=[N-]
- T/C [20]: 99 % of control
- T/C [21]: 96 % of control
- T/C [22]: 96 % of control

SMILES: OCCn1nc2c(c1-c1ccccn1)CCCc1ccccc1-2
- T/C (dose: 100.0 mg/kg/injection, schedule: Q04DX002 (ip), vehicle: gum acacia): 104 % of control
- T/C (dose: 200.0 mg/kg/injection, schedule: Q04DX002 (ip), vehicle: gum acacia): 97 % of control
- T/C (dose: 400.0 mg/kg/injection, schedule: Q04DX002 (ip), vehicle: gum acacia): 92 % of control

SMILES: CC(=O)OCc1ccc2ccccc2c1
- T/C (dose: 100.0 mg/kg/injection, schedule: Q01DX009 (ip), vehicle: saline sonified): 100 % of control
- T/C (dose: 200.0 mg/kg/injection, schedule: Q01DX009 (ip), vehicle: saline sonified): 100 % of control
- T/C (dose: 400.0 mg/kg/injection, schedule: Q01DX009 (ip), vehicle: saline sonified): 100 % of control

SMILES: N#Cc1nnc2cc(-c3ccccc3)nn2c1-c1ccco1
- T/C [6]: 98 % of control
- T/C [7]: 90 % of control

SMILES: CSc1nc(C#N)c(/N=C\N(C)C)s1
- T/C [12]: 100 % of control
- T/C [13]: 99 % of control
- T/C [14]: 100 % of control

SMILES: COc1cccc(OC)c1SSCCN
- T/C (dose: 100.0 mg/kg/injection, schedule: Q04DX002 (ip), vehicle: suspension in saline): 107 % of control
- T/C (dose: 200.0 mg/kg/injection, schedule: Q04DX002 (ip), vehicle: suspension in saline): 111 % of control

SMILES: CN(CCCl)C(=O)c1ccc([N+](=O)[O-])cc1
- T/C [17]: 105 % of control
- T/C [18]: 116 % of control
- T/C [19]: 101 % of control

SMILES: NC(=O)CCBr
- T/C [17]: 101 % of control
- T/C [18]: 97 % of control

SMILES: COc1cccc2c1C(=O)c1c(O)c3c(c(O)c1C2=O)CC(O)(c1csc(C)n1)CC3O (centres undefined)
- T/C (dose: 1.56 mg/kg/injection, schedule: Q01DX009 (ip), vehicle: other): 105 % of control
- T/C (dose: 3.13 mg/kg/injection, schedule: Q01DX009 (ip), vehicle: other): 96 % of control
- T/C (dose: 6.25 mg/kg/injection, schedule: Q01DX009 (ip), vehicle: other): 100 % of control
- T/C (dose: 12.5 mg/kg/injection, schedule: Q01DX009 (ip), vehicle: other): 100 % of control
- T/C (dose: 25.0 mg/kg/injection, schedule: Q01DX009 (ip), vehicle: other): 99 % of control and 107 % of control
- T/C (dose: 50.0 mg/kg/injection, schedule: Q01DX009 (ip), vehicle: other): 108 % of control
- T/C (dose: 100.0 mg/kg/injection, schedule: Q01DX009 (ip), vehicle: other): 107 % of control

SMILES: CCC(C)(C)N=C(Nc1cccnc1)Nc1nccs1
- T/C [9]: 92 % of control
- T/C [10]: 94 % of control
- T/C [11]: 87 % of control

SMILES: CN(C)CC(CN(C)C)C(=O)/C=C/c1ccc(OCc2ccccc2)cc1
- T/C (dose: 6.25 mg/kg/injection, schedule: Q01DX005 (ip), vehicle: saline): 104 % of control
- T/C (dose: 12.5 mg/kg/injection, schedule: Q01DX005 (ip), vehicle: saline): 97 % of control

SMILES: N#CC(C(=O)C(=O)Nc1cccc(C(F)(F)F)c1)c1ccccc1Cl (centres undefined)
- T/C [20]: 102 % of control
- T/C [21]: 97 % of control
- T/C [22]: 99 % of control

SMILES: O=C1CC(c2ccccc2)C(=O)N1CN1CC=CCC1 (centres undefined)
- T/C (dose: 100.0 mg/kg/injection, schedule: Q01DX001 (ip), vehicle: Klucel (hydroxypropylcellulose) (HPC)): 124 % of control

SMILES: COc1cc(C=C2C(=O)C=CC2=O)cc(OC)c1OC
- T/C (dose: 1.25 mg/kg/injection, schedule: Q04DX002 (ip), vehicle: saline with Tween-80): 107 % of control
- T/C (dose: 2.5 mg/kg/injection, schedule: Q04DX002 (ip), vehicle: saline with Tween-80): 99 % of control
- T/C (dose: 5.0 mg/kg/injection, schedule: Q04DX002 (ip), vehicle: saline with Tween-80): 104 % of control

SMILES: Cc1nn(C(=O)c2ccncc2)c(C)c1N=Nc1ccc(S(=O)(=O)Nc2ncccn2)cc1
- T/C [1]: 109 % of control
- T/C [8]: 109 % of control
- T/C [2]: 105 % of control

SMILES: CNc1cc2nc3ccccc3nc2cc1O
- T/C [3]: 104 % of control
- T/C [4]: 92 % of control
- T/C [5]: 86 % of control

SMILES: COc1ccc(CCNC(=O)CC2CC(=O)N(CCc3ccc(OC)c(OC)c3)C(=O)C2)cc1OC
- T/C [12]: 101 % of control
- T/C [13]: 98 % of control
- T/C [14]: 101 % of control

SMILES: CCN(CC)CCNc1c(OC)c(OC)cc2nccnc12
- T/C (dose: 25.0 mg/kg/injection, schedule: Q01DX005 (ip), vehicle: suspension in saline): 98 % of control
- T/C (dose: 50.0 mg/kg/injection, schedule: Q01DX005 (ip), vehicle: suspension in saline): 98 % of control
- T/C (dose: 100.0 mg/kg/injection, schedule: Q01DX005 (ip), vehicle: suspension in saline): 98 % of control

SMILES: CC(O)C(O)C(O)C(O)C=O (centres undefined)
- T/C (dose: 60.0 mg/kg/injection, schedule: Q01DX005 (ip), vehicle: saline): 109 % of control
- T/C (dose: 240.0 mg/kg/injection, schedule: Q01DX005 (ip), vehicle: saline): 100 % of control

SMILES: CCN(CC)c1ccc2nc3c4ccccc4c(=NC(=O)c4ccccc4-c4c5ccc(N(CC)CC)cc5[o+]c5cc(N(CC)CC)ccc45)cc-3oc2c1
- T/C [3]: 106 % of control
- T/C [4]: 96 % of control

SMILES: S=C1SCN(C2CCCCCCCCCCC2)CN1C1CCCCCCCCCCC1
- T/C [17]: 94 % of control
- T/C [18]: 93 % of control
- T/C [19]: 97 % of control
- T/C (dose: 400.0 mg/kg/injection, schedule: Q01DX009 (ip), vehicle: saline with Tween-80): 101 % of control

SMILES: CCOC(=O)C(=CNc1cccc2c(O)cccc12)C(=O)OCC
- T/C (dose: 12.5 mg/kg/injection, schedule: Q01DX005 (ip), vehicle: saline with Tween-80): 90 % of control
- T/C (dose: 25.0 mg/kg/injection, schedule: Q01DX005 (ip), vehicle: saline with Tween-80): 93 % of control
- T/C [15]: 97 % of control
- T/C [16]: 95 % of control
